According to BindingDB's records for doi:10.1016/j.ejmech.2021.113362 (The First Affiliated Hospital of Wenzhou Medical University, 2021):

Target: Signal transducer and activator of transcription 3 (Homo sapiens, UniProt P40763)
Assay: Inhibition of STAT3 phosphorylation in human MDA-MB-231 cells by sandwich ELISA

Sequence of Signal transducer and activator of transcription 3 (P40763 whole entry): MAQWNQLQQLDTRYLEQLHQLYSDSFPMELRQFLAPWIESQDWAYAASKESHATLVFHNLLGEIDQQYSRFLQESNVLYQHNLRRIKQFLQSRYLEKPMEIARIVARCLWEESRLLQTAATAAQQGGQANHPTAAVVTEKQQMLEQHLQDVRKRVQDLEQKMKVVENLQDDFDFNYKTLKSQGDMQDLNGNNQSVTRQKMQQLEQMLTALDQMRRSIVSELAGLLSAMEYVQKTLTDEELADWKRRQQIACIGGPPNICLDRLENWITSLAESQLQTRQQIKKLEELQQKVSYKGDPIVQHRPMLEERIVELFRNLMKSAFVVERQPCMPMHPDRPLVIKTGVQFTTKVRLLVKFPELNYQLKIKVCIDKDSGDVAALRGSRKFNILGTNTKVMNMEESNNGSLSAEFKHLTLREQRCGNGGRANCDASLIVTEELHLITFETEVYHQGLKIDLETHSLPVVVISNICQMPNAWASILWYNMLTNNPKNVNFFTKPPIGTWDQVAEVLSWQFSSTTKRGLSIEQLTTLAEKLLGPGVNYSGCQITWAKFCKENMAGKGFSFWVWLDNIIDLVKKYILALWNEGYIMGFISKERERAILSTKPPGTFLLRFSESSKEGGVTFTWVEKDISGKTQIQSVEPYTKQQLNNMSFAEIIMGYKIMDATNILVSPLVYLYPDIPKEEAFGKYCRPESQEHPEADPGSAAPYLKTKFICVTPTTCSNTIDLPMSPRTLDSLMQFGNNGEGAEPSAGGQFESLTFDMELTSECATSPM

SMILES | IC50
O=C(Nc1ccc([N+](=O)[O-])cc1Cl)c1cc(Cl)ccc1O [5-chloro-N-(2-chloro-4-nitrophenyl)-2-hydroxybenzamide] | 210 nM
CC(C)(C)OC(=O)c1ccc(NC(=O)c2ccc(Cl)c(S(N)(=O)=O)c2)cc1 | 230 nM
COc1cc(NC(=O)c2ccc(Cl)c(S(N)(=O)=O)c2)cc(OC)c1OC | 720 nM
CC(C)(C)OC(=O)c1ccc(NC(=O)c2cccc(S(N)(=O)=O)c2)cc1 | 920 nM
